Laboratory results from paper PMC11843613, “Further Optimization of the mGlu1 PAM VU6024578/BI02982816: Discovery and Characterization of VU6033685” (ACS Chemical Neuroscience, 2025).

How the values were obtained:
[1] = Predicted hepatic clearance (c); type: in vitro ADME, c (presumably cynomolgus)
Experimental: at half log concentrations in DMSO were further diluted in assay buffer. The compounds or DMSO vehicle were added to cells and incubated for 2.5 min and an EC20 concentration of glutamate was added and incubated for 1 min. An ECmax concentration of glutamate was also added to cells that were incubated with DMSO vehicle to accurately calculate the EC20 calcium response. Data were normalized by subtracting the basal florescent peak before EC20 agonist addition from the maximal peak elicited by EC20 agonist and PAMs. Using GraphPad Prism 5.0, the concentration response curves were generated and the potencies of the mGlu1 PAMs were determined.
Plasma protein binding: The protein binding of each compound was determined in plasma via equilibrium dialysis employing RED Plates (ThermoFisher Scientific, Rochester, NY). Plasma was added to the 96 well plate containing test compound and mixed thoroughly for a final concentration of 5 µM. […]
Each compound was assayed in triplicate within the same 96-well plate. Fraction unbound was determined using the following equation […]
After a 5 min preincubation, the reaction was initiated by addition of NADPH (1 mM). […] The in vitro half-life (T 1/2, min, Eq. 1), intrinsic clearance (CLint, mL/min/kg, Eq. 2) and subsequent predicted hepatic clearance (CLhep, mL/min/kg, Eq. 3) was determined […]

[2] = Sprague-Dawley, in vivo
[3] = system: striatal DA release; assay: Electrically evoked striatal DA release in brain slices (fast scanning cyclic voltammetry); conditions: 10 μM PAM + 10 μM DHPG, mouse slices, 1 μM DHβE present
Experimental: into the home cage. The arena is then cleaned with 70% ethanol in between animals. The day of the test the animals are habituated to the dosing room for 2 hours. The animals were administered VU6024578 (1-10 mg/kg p.o.) or vehicle (10% Tween 80) and were placed back into their homecage for 60 min. The animals were then injected with MK-801 (0.075 mg/kg 1 ml/kg s.c.) and placed back in the homecage for 30 min. The animals are then placed into the arena with two identical familiar objects for ten minutes and then placed back into the home cage. The animals are then placed back into the arena with one of the familiar objects replaced with a novel object at 120 min after the familiar object exposure. The activity of the animals are recorded and the time spent exploring each of the objects is scored by a blinded observer. Recognition index is determined by subtracting […] divided by total time spent exploring.
Brain Slice Preparation and Fast Scanning Cyclic Voltammetry: […]
Electrically-evoked dopamine overflow was monitored with carbon fiber electrodes as previously reported (Foster et al. 2014). […]

Q: With Cc1nc(C2CC2)ccc1CNC(=O)c1cc(-n2cccn2)ccc1Cl [compound 8] as the molecule, how does the “Predicted CLhep (c)” value [1] read?
A: 33.2 mL/min/kg

Q: What about the “free brain concentration (fold rat EC50) that was well tolerated” value [2] of the same molecule?
A: up to 5.3 fold

Q: What about the “effect on striatal DA release when coapplied with subthreshold DHPG” value [3] of the same molecule?
A: robust inhibition of DA release
